This note sets out measurements from patent US8741932B2, “Imidazopyridine derivatives” (Piramal Enterprises Limited, priority 2009, dated 2014).

The term IC50 denotes the concentration that gives 50% inhibition.

For the assay, the system named is IL-6. The experiment in a line: Human monocyte assay, LPS-stimulated IL-6. Conditions: Monocyte; human monocytes, 1 μg/ml LPS, 5 hours. It is filed as cell-based. As for the experimental part: The assay was designed as in the reference, Physiol.
Peripheral blood mononuclear cells (hPBMC) were harvested from human blood and suspended in RPMI 1640 culture medium containing 10% FCS, 100 U/mL penicillin and […] streptomycin (assay medium). Monocytes in the hPBMCs were counted using a Coulter Counter following which the cells were resuspended at 2×10^5 monocytes/mL. A cell suspension containing 2×10^4 monocytes was aliquoted per well of a 96-well plate. Subsequently, the hPBMCs were incubated for 4-5 hours at 37° C., 5% CO2 (During the incubation, the monocytes adhered to the bottom of 96-well plastic culture plate). Following the incubation, the non-adherent lymphocytes were washed with assay medium and the adherent monocytes re-fed with assay medium. After a 48-hour incubation period (37° C., 5% CO2), monocytes were pretreated with various concentrations of representative compounds of present invention (refer to table 6 and 7) (prepared in DMSO) or vehicle (0.5% DMSO) for 30 minutes and stimulated with 1 μg/ml LPS (Escherchia coli 0111:B4, Sigma Chemical Co., St. Louis, Mo.). The incubation was continued for 5 hours at 37° C., 5% CO2. Supernatants were harvested, assayed for IL-6 and TNF-α by ELISA as described by the manufacturer (BD Biosciences, USA). Dexamethasone (10 μM) was used as standard for this assay. […] Biological results for both IL-6 and TNFα are indicated in Table 6 and Table 7 respectively.
`CN(/N=C/c1cnc2ccc(-c3cccnc3)cn12)S(=O)(=O)c1ccc(F)c(F)c1F` [Example 34, (E)-2,3,4-Trifluoro-N-methyl-N′-((6-(pyridin-3-yl)imidazo[1,2-a]pyridin-3-yl)methylene)benzenesulfonohydrazide] displayed an IC50 of 0.001 to 5 µM.

Turning to `CN(/N=C/c1cnc2ccc(-c3cccnc3)cn12)S(=O)(=O)c1cc(F)c(Br)cc1F` [Example 35, (E)-4-bromo-2,5-difluoro-N-methyl-N′-((6-(pyridin-3-yl)imidazo[1,2-a]pyridin-3-yl)methylene)benzenesulfonohydrazide], the IC50 lay within 0.001 to 5 µM.

`CN(/N=C/c1cnc2ccc(-c3cccnc3)cn12)S(=O)(=O)c1ccc(F)cc1Br` [Example 36, (E)-2-bromo-4-fluoro-N-methyl-N′-((6-(pyridin-3-yl)imidazo[1,2-a]pyridin-3-yl)methylene)benzenesulfonohydrazide] displayed a 50% inhibitory concentration (IC50) of no less than 5 µM.

`CN(/N=C/c1cnc2ccc(-c3cccnc3)cn12)S(=O)(=O)c1cccc(Cl)c1` [Example 39, (E)-3-chloro-N-methyl-N′-((6-(pyridin-3-yl)imidazo[1,2-a]pyridin-3-yl)methylene)benzenesulfonohydrazide] returned an IC50 of 0.001 to 5 µM.

For the compound `CN(/N=C/c1cnc2ccc(-c3cccnc3)cn12)S(=O)(=O)c1ccc(C(F)(F)F)cc1Cl` [Example 40, (E)-2-chloro-N-methyl-N′-((6-(pyridin-3-yl)imidazo[1,2-a]pyridin-3-yl)methylene)-4-(trifluoromethyl)benzenesulfonohydrazide], the 50% inhibitory concentration (IC50) was in the range of 0.001 to 5 µM.

`CN(/N=C/c1cnc2ccc(-c3cccnc3)cn12)S(=O)(=O)c1ccc(F)cc1Cl` [Example 41, (E)-2-chloro-4-fluoro-N-methyl-N′-((6-(pyridin-3-yl)imidazo[1,2-a]pyridin-3-yl)methylene) benzenesulfonohydrazide] returned an IC50 of 0.001 to 5 µM.

Compound `Cc1nc(S(=O)(=O)N(C)/N=C/c2cnc3ccc(-c4cccnc4)cn23)cn1C` [Example 42, (E)-N, 1,2-trimethyl-N′-((6-(pyridin-3-yl)imidazo[1,2-a]pyridin-3-yl)methylene)-1H-imidazole-4-sulfonohydrazide] had an IC50 of no less than 5 µM.

`Cc1cc(S(=O)(=O)N(C)/N=C/c2cnc3ccc(-c4cccnc4)cn23)c(C)cc1Cl` [Example 43, (E)-4-chloro-N, 2,5-trimethyl-N′-((6-(pyridin-3-yl)imidazo[1,2-a]pyridin-3-yl)methylene) benzenesulfonohydrazide] displayed a concentration for half-maximal inhibition (IC50) of no less than 5 µM.

`CN(/N=C/c1cnc2ccc(-c3cccnc3)cn12)S(=O)(=O)c1cc(F)ccc1F` [Example 44, (E)-2,5-difluoro-N-methyl-N′-((6-(pyridin-3-yl)imidazo[1,2-a]pyridin-3-yl)methylene) benzenesulfonohydrazide] displayed an IC50 of 0.001 to 5 µM.

`CN(/N=C/c1cnc2ccc(-c3cccnc3)cn12)S(=O)(=O)c1ccc(I)cc1` [Example 46, (E)-4-Iodo-N-methyl-N′-((6-(pyridin-3-yl)imidazo[1,2-a]pyridin-3-yl)methylene)benzenesulfonohydrazide] returned a concentration for half-maximal inhibition (IC50) of no less than 5 µM.

Regarding `CN(/N=C/c1cnc2ccc(-c3cccnc3)cn12)S(=O)(=O)c1ccc(-c2cc(C(F)(F)F)ccc2F)cc1` [Example 47, (E)-2′-Fluoro-N-methyl-N′-((6-(pyridin-3-yl)imidazo[1,2-a]pyridin-3-yl)methylene)-5′-(trifluoromethyl)biphenyl-4-sulfonohydrazide], the IC50 is no less than 5 µM.

Compound `Cc1ccc(C)c(S(=O)(=O)N(C)/N=C/c2cnc3ccc(-c4cccnc4)cn23)c1` [Example 50, (E)-N, 2,5-trimethyl-N′-((6-(pyridin-3-yl)imidazo[1,2-a]pyridin-3-yl)methylene)benzenesulfonohydrazide] showed an IC50 of 0.001 to 5 µM.

The compound `CN(/N=C/c1cnc2ccc(-c3cccnc3)cn12)S(=O)(=O)c1cc(Br)ccc1Br` [Example 51, (E)-2,5-dibromo-N-methyl-N′-((6-(pyridin-3-yl)imidazo[1,2-a]pyridin-3-yl)methylene) benzenesulfonohydrazide] displayed an IC50 of 0.001 to 5 µM.

`COc1ccc(OC)c(S(=O)(=O)N(C)/N=C/c2cnc3ccc(-c4cccnc4)cn23)c1` [Example 52, (E)-2,5-dimethoxy-N-methyl-N′-((6-(pyridin-3-yl)imidazo[1,2-a]pyridin-3-yl)methylene) benzenesulfonohydrazide]: the concentration for half-maximal inhibition (IC50) fell in the range of 0.001 to 5 µM.

In the case of `COc1ccc(Cl)cc1S(=O)(=O)N(C)/N=C/c1cnc2ccc(-c3cccnc3)cn12` [Example 55, (E)-5-chloro-2-methoxy-N-methyl-N′-((6-(pyridin-3-yl)imidazo[1,2-a]pyridin-3-yl)methylene) benzenesulfonohydrazide], the half-maximal inhibitory concentration (IC50) fell in the range of 0.001 to 5 µM.

`CN(/N=C/c1cnc2ccc(-c3cccnc3)cn12)S(=O)(=O)c1ccc(Br)cc1OC(F)(F)F` [Example 56, (E)-4-bromo-N-methyl-N′-((6-(pyridin-3-yl)imidazo[1,2-a]pyridin-3-yl)methylene)-2-(trifluoromethoxy)benzenesulfonohydrazide] gave an IC50 of 0.001 to 5 µM.

As for `CN(/N=C/c1cnc2ccc(-c3cccnc3)cn12)S(=O)(=O)c1cc(C(F)(F)F)ccc1Br` [Example 57, (E)-2-bromo-N-methyl-N′-((6-(pyridin-3-yl)imidazo[1,2-a]pyridin-3-yl)methylene)-5-(trifluoromethyl)benzenesulfonohydrazide], the IC50 lay in the range of 0.001 to 5 µM.

Consider `CN(/N=C/c1cnc2ccc(-c3cccnc3)cn12)S(=O)(=O)c1ccccc1[N+](=O)[O-]` [Example 58, (E)-N-methyl-2-nitro-N′-((6-(pyridin-3-yl)imidazo[1,2-a]pyridin-3-yl)methylene)benzenesulfonohydrazide], for which the half-inhibitory concentration (IC50) was 0.001 to 5 µM.

As to `CN(/N=C/c1cnc2ccc(-c3cccnc3)cn12)S(=O)(=O)c1ccccc1S(C)(=O)=O` [Example 59, (E)-N-methyl-2-(methylsulfonyl)-N′-((6-(pyridin-3-yl)imidazo[1,2-a]pyridin-3-yl)methylene) benzenesulfonohydrazide], the IC50 was 0.001 to 5 µM.

The compound `CN(/N=C/c1cnc2ccc(-c3cccnc3)cn12)S(=O)(=O)c1ccccc1Oc1ccccc1` [Example 60, (E)-N-methyl-2-phenoxy-N′-((6-(pyridin-3-yl)imidazo[1,2-a]pyridin-3-yl)methylene)benzenesulfonohydrazide] registered an IC50 of 0.001 to 5 µM.

Turning to `CCCCCCS(=O)(=O)N(C)/N=C/c1cnc2ccc(-c3cccnc3)cn12` [Example 61, (E)-N-methyl-N′-((6-(pyridin-3-yl)imidazo[1,2-a]pyridin-3-yl)methylene) hexane-1-sulfonohydrazide], the concentration for half-maximal inhibition (IC50) is 0.001 to 5 µM.

For the compound `CN(/N=C/c1cnc2ccc(-c3cccnc3)cn12)S(=O)(=O)c1cc(C(F)(F)F)ccc1N1CCOCC1` [Example 62, (E)-N-methyl-2-morpholino-N′-((6-(pyridin-3-yl)imidazo[1,2-a]pyridin-3-yl)methylene)-5-(trifluoromethyl)benzenesulfonohydrazide], the half-inhibitory concentration (IC50) fell in the range of 0.001 to 5 µM.

The compound `Cc1ccc(S(C)(=O)=O)cc1S(=O)(=O)N(C)/N=C/c1cnc2ccc(-c3cccnc3)cn12` [Example 63, (E)-N,2-dimethyl-5-(methylsulfonyl)-N′-((6-(pyridin-3-yl)imidazo[1,2-a]pyridin-3-yl)methylene) benzenesulfonohydrazide] returned a 50% inhibitory concentration (IC50) of 0.001 to 5 µM.

`CN(/N=C/c1cnc2ccc(-c3cccnc3)cn12)S(=O)(=O)c1ccccc1Br` [Example 64, (E)-2-bromo-N-methyl-N′-((6-(pyridin-3-yl)imidazo[1,2-a]pyridin-3-yl)methylene) benzenesulfonohydrazide]: the IC50 fell in the range of 0.001 to 5 µM.

For `CN(/N=C/c1cnc2ccc(-c3cccnc3)cn12)S(=O)(=O)c1ccc(N2CCOCC2)nc1` [Example 66, (E)-N-methyl-6-morpholino-N′-((6-(pyridin-3-yl)imidazo[1,2-a]pyridin-3-yl)methylene) pyridine-3-sulfonohydrazide], the 50% inhibitory concentration (IC50) was 0.001 to 5 µM.

In turn, `COC(=O)c1ccc(S(=O)(=O)N(C)/N=C/c2cnc3ccc(-c4cccnc4)cn23)n1C` [Example 67, (E)-Methyl 1-methyl-5-(1-methyl-2-((6-(pyridin-3-yl)imidazo[1,2-a]pyridin-3-yl)methylene) hydrazinylsulfonyl)-1H-pyrrole-2-carboxylate] displayed an IC50 of 0.001 to 5 µM.

Consider `CN1CCOc2cc(S(=O)(=O)N(C)/N=C/c3cnc4ccc(-c5cccnc5)cn34)cnc21` [Example 68, (E)-N,4-dimethyl-N′-((6-(pyridin-3-yl)imidazo[1,2-a]pyridin-3-yl)methylene)-3,4-dihydro-2H-pyrido[3,2-b][1,4]oxazine-7-sulfonohydrazide], for which the 50% inhibitory concentration (IC50) fell in the range of 0.001 to 5 µM.

Take `CN(/N=C/c1cnc2ccc(-c3cccnc3)cn12)S(=O)(=O)c1cccnc1` [Example 69, (E)-N-methyl-N′-((6-(pyridin-3-yl)imidazo[1,2-a]pyridin-3-yl)methylene) pyridine-3-sulfonohydrazide]: the IC50 lay in the range of 0.001 to 5 µM.

As for `CN(/N=C/c1cnc2ccc(-c3cccnc3)cn12)S(=O)(=O)c1ccc(Oc2ccccc2)cc1` [Example 70, (E)-N-methyl-4-phenoxy-N′-((6-(pyridin-3-yl)imidazo[1,2-a]pyridin-3-yl)methylene)benzenesulfonohydrazide], the half-inhibitory concentration (IC50) was in the range of 0.001 to 5 µM.
